According to ChEMBL document CHEMBL3885861, “Open TG-GATES”:

Organism: Rattus norvegicus
Assay: Open TG-GATES - Regimen: Single
Type: toxicity, organism-based, Sprague-Dawley
Design: regimen Single, gender Male, age 6 weeks
Settings: in vivo, po, 600 mg/kg, route gavage, dose level High; for APTT / Bas / Eos / Fbg / Hb / Ht / Lym / MCH / MCHC / MCV / Mono / Neu / PT / Plat / RBC / Ret / WBC: tissue Blood; for KIDNEY_L / KIDNEY_R / KIDNEY_TOTAL: tissue Kidney; for LIVER: tissue Liver; for A/G / ALP / ALT / AST / BUN / CRE / Ca / Cl / DBIL / GLC / IP / K / LDH / Na / PL / RALB / TBIL / TC / TG / TP / gamma-GTP: tissue Plasma

C[C@](N)(Cc1ccc(O)c(O)c1)C(=O)O [METHYLDOPA]
TERMINAL_BW (3 h): 186.5 g | APTT (3 h): 15.6 s | Bas (3 h): 0% | Eos (3 h): 0.8% | Fbg (3 h): 261.6 mg/dL | Hb (3 h): 13.2 g/dL | Ht (3 h): 39.8% | Lym (3 h): 74.6% | MCH (3 h): 22 pg | MCHC (3 h): 33.1% | MCV (3 h): 66.7 fL | Mono (3 h): 3.4% | Neu (3 h): 20.8% | PT (3 h): 12.2 s | Plat (3 h): 112.5 x10_4/uL | RBC (3 h): 597.2 x10_4/ul | Ret (3 h): 10.6% | WBC (3 h): 68.3 x10_2/uL | KIDNEY_L (3 h): 0.8 g | KIDNEY_R (3 h): 0.8 g | KIDNEY_TOTAL (3 h): 1.6 g | LIVER (3 h): 7.8 g | A/G (3 h): 0.9 | ALP (3 h): 1837.6 IU/L | ALT (3 h): 55.2 IU/L | AST (3 h): 84.4 IU/L | BUN (3 h): 9.4 mg/dL | CRE (3 h): 0.1 mg/dL | Ca (3 h): 11.3 mg/dL | Cl (3 h): 108.2 meq/L | DBIL (3 h): 0.018 mg/dL | GLC (3 h): 204.4 mg/dL | IP (3 h): 9.8 mg/dL | K (3 h): 4.6 meq/L | LDH (3 h): 59.6 IU/L | Na (3 h): 143.4 meq/L | PL (3 h): 133.6 mg/dL | RALB (3 h): 2.5 g/dL | TBIL (3 h): 0.054 mg/dL | TC (3 h): 76.6 mg/dL | TG (3 h): 70.8 mg/dL | TP (3 h): 5.4 g/dL | gamma-GTP (3 h): 1 IU/L | TERMINAL_BW (6 h): 187.6 g | APTT (6 h): 17.1 s | Bas (6 h): 0% | Eos (6 h): 0.8% | Fbg (6 h): 272.2 mg/dL | Hb (6 h): 13.7 g/dL | Ht (6 h): 41.1% | Lym (6 h): 81% | MCH (6 h): 21.7 pg | MCHC (6 h): 33.3% | MCV (6 h): 65.2 fL | Mono (6 h): 2.4% | Neu (6 h): 15.4% | PT (6 h): 12.3 s | Plat (6 h): 136.7 x10_4/uL | RBC (6 h): 631 x10_4/ul | Ret (6 h): 9.9% | WBC (6 h): 49.9 x10_2/uL | KIDNEY_L (6 h): 0.8 g | KIDNEY_R (6 h): 0.8 g | KIDNEY_TOTAL (6 h): 1.7 g | LIVER (6 h): 7.7 g | A/G (6 h): 0.9 | ALP (6 h): 1883.6 IU/L | ALT (6 h): 52 IU/L | AST (6 h): 81 IU/L | BUN (6 h): 6 mg/dL | CRE (6 h): 0.1 mg/dL | Ca (6 h): 11.7 mg/dL | Cl (6 h): 105.2 meq/L | DBIL (6 h): 0.006 mg/dL | GLC (6 h): 225.8 mg/dL | IP (6 h): 13.1 mg/dL | K (6 h): 5.4 meq/L | LDH (6 h): 71.8 IU/L | Na (6 h): 144.8 meq/L | PL (6 h): 122 mg/dL | RALB (6 h): 2.6 g/dL | TBIL (6 h): 0.054 mg/dL | TC (6 h): 76.6 mg/dL | TG (6 h): 38 mg/dL | TP (6 h): 5.6 g/dL | gamma-GTP (6 h): 1 IU/L | TERMINAL_BW (9 h): 188.2 g | APTT (9 h): 17.2 s | Bas (9 h): 0% | Eos (9 h): 0.4% | Fbg (9 h): 262.8 mg/dL | Hb (9 h): 13.5 g/dL | Ht (9 h): 40.3% | Lym (9 h): 79% | MCH (9 h): 22.1 pg | MCHC (9 h): 33.6% | MCV (9 h): 65.8 fL | Mono (9 h): 2.6% | Neu (9 h): 17.4% | PT (9 h): 12.5 s | Plat (9 h): 122.5 x10_4/uL | RBC (9 h): 614.4 x10_4/ul | Ret (9 h): 9.7% | WBC (9 h): 52.4 x10_2/uL | KIDNEY_L (9 h): 0.8 g | KIDNEY_R (9 h): 0.8 g | KIDNEY_TOTAL (9 h): 1.6 g | LIVER (9 h): 7.3 g | A/G (9 h): 0.9 | ALP (9 h): 1418.8 IU/L | ALT (9 h): 46.2 IU/L | AST (9 h): 67.8 IU/L | BUN (9 h): 6.2 mg/dL | CRE (9 h): 0.1 mg/dL | Ca (9 h): 11.4 mg/dL | Cl (9 h): 105.6 meq/L | DBIL (9 h): 0.008 mg/dL | GLC (9 h): 220 mg/dL | IP (9 h): 11.8 mg/dL | K (9 h): 4.9 meq/L | LDH (9 h): 62 IU/L | Na (9 h): 144.2 meq/L | PL (9 h): 120 mg/dL | RALB (9 h): 2.5 g/dL | TBIL (9 h): 0.056 mg/dL | TC (9 h): 75.4 mg/dL | TG (9 h): 30.8 mg/dL | TP (9 h): 5.3 g/dL | gamma-GTP (9 h): 1 IU/L | TERMINAL_BW (24 h): 180.6 g | APTT (24 h): 16.9 s | Bas (24 h): 0% | Eos (24 h): 1% | Fbg (24 h): 251.2 mg/dL | Hb (24 h): 13.4 g/dL | Ht (24 h): 39.6% | Lym (24 h): 76% | MCH (24 h): 21.9 pg | MCHC (24 h): 33.9% | MCV (24 h): 64.5 fL | Mono (24 h): 3% | Neu (24 h): 20% | PT (24 h): 12.5 s | Plat (24 h): 133.6 x10_4/uL | RBC (24 h): 613.2 x10_4/ul | Ret (24 h): 9.5% | WBC (24 h): 49.4 x10_2/uL | KIDNEY_L (24 h): 0.9 g | KIDNEY_R (24 h): 0.9 g | KIDNEY_TOTAL (24 h): 1.8 g | LIVER (24 h): 7.5 g | A/G (24 h): 0.9 | ALP (24 h): 1827.4 IU/L | ALT (24 h): 50 IU/L | AST (24 h): 73.4 IU/L | BUN (24 h): 20 mg/dL | CRE (24 h): 0.2 mg/dL | Ca (24 h): 11.4 mg/dL | Cl (24 h): 108.2 meq/L | DBIL (24 h): 0.02 mg/dL | GLC (24 h): 202.2 mg/dL | IP (24 h): 8.8 mg/dL | K (24 h): 4.8 meq/L | LDH (24 h): 63.4 IU/L | Na (24 h): 146.2 meq/L | PL (24 h): 139.4 mg/dL | RALB (24 h): 2.7 g/dL | TBIL (24 h): 0.074 mg/dL | TC (24 h): 84 mg/dL | TG (24 h): 60.6 mg/dL | TP (24 h): 5.7 g/dL | gamma-GTP (24 h): 1 IU/L
